Where “and” joins values, the source holds several entries; their conditions need not be identical. Equal entries are not always repeated.
Target: CGRP receptor complex (Homo sapiens, UniProt O60894+Q16602)
Assay: Functional antagonism/Schild analysis, CGRP-stimulated cAMP production (HTRF) in SK-N-MC cells
Assay type: cell-based
Description: Saturation/Scatchard Analysis. […] Saturation data were analyzed using a one site binding equation to estimate apparent equilibrium dissociation constant (Kd) and the maximum number of binding sites (Bmax) (Prizm v4.0, Graphpad). […] Functional Antagonism/Schild analysis. Agonist stimulation of CGRP receptor complex leads to cyclic AMP (adenosine 3′5′-cyclic monophosphate) production via Gs-dependent activation of an adenylate cyclase (Juaneda C et al., TiPS, 2000; 21:432-438). Consequently, CGRP receptor antagonists inhibit CGRP-induced cyclic AMP formation in SK-N-MC cells which natively express the CGRP receptor complex (Doods H et al., Br J Pharmacol, 2000; 129(3):420-423). […] A Schild analysis format was used, which allowed investigation of the mechanism of antagonism. […] Various concentrations of CGRP were added and the cells were allowed to incubate 30 min at room temperature. The cells were lysed with lysis reagent and cAMP concentrations were determined by HTRF according to the manufacturer's instructions. A standard curve using known quantities of cAMP was evaluated in parallel to allow conversion of HTRF ratio to nM cAMP. The resulting curves were then evaluated using a Gaddum/Schild equation individually and with global fitting (Prizm v4.0, Graphpad). […] To obtain a global fit the following parameters were shared (top, bottom, logEC50, Hill slope and pA2) and all curves were fit simultaneously. […] Non-Terminal Method for Assessing In Vivo Efficacy of Small Molecule CGRP-Receptor Antagonists in Mammals Overview. […] Non-human primates (e.g., marmosets) are the only animals known to have human-like CGRP receptor pharmacology conferred by the presence of the specific amino acid residue (Trp74) in their RAMP1 sequence which is responsible for the phenotype of the human receptor (Mallee et al. J Biol Chem 2002 277:14294). […]

Sequence of CGRP receptor complex (Q16602 23-461): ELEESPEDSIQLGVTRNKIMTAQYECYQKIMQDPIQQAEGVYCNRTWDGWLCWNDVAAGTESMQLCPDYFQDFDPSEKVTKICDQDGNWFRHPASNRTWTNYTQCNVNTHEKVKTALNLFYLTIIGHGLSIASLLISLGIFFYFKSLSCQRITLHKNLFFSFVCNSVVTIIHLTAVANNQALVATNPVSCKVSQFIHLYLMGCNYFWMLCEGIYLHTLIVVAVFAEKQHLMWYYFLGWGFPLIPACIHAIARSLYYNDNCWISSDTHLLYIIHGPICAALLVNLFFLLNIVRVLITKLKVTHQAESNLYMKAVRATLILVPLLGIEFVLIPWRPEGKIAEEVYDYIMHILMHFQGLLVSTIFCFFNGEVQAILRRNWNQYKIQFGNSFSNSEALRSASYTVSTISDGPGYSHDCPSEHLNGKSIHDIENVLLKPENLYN
Sequence of CGRP receptor complex (O60894 27-148): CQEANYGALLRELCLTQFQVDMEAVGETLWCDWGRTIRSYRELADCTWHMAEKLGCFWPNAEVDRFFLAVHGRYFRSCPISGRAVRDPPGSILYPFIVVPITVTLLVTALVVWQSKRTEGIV

## O=C(O[C@@H]1CC[C@@H](c2cccc(F)c2F)Cc2cccnc21)N1CCC(n2c(=O)[nH]c3ncccc32)CC1 [Example 20]
15 min pre-incubation, 0.3 to 24 nM antagonist
  effect on maximal CGRP response (cAMP production): without altering the maximal response
Global Gaddum/Schild fit, Schild slope of 1, two datasets
  Kb: 0.247 ± 0.04 nM
Global fits with unconstrained Schild slope, two separate experiments
  Schild slope: 1.17 and 0.8

Source: US8143403B2 (Bristol-Myers Squibb Company, priority 2008, dated 2012)
